Earlier results as cited in patent publication US20130210767A1, “BIOCIDAL COMPOSITION AND METHOD” (Arcis Biotechnology Limited, priority 2010, published 2013).

In the case of CCCCCCCCCCCCCCCCCC[N+](C)(C)CCC[Si](OC)(OC)OC [compound of formula (I)], the “stability in aqueous solution” value (aqueous solution) is listed as “limited stability” and the “stability in the presence of methanol” value (in the presence of methanol) is listed as “stable”.
